Results reported in patent US9980943B2, “Methods of treating muscular dystrophy” (BOARD OF REGENTS OF THE NEVADA SYSTEM OF HIGHER EDUCATION, …, priority 2013, dated 2018).

Legend:
Type in all cases: cell-based, mouse
[1] = system: α7 integrin (LacZ reporter in α7βgal+/− myoblasts); assay: Myoblast α7+/LacZ integrin FDG assay (Burkin assay in myoblasts, 96-well); details: α7+/LacZ myoblasts, 96-well; for fold induction at 0.5 µM / fold induction at 1 µM / fold induction at 5 µM / fold induction at 10 µM / fold induction at 20 µM / fold induction at 40 µM: Mus musculus, Myoblast, 48 h, read-out: Burkin Assay in Myoblasts, signal relative to DMSO
[2] = system: α7 integrin (LacZ reporter in α7+/LacZ myotubes); assay: Myotube α7 integrin FDG assay (Burkin assay in myotubes, 96-well); details: myotubes; for fold induction at 0.5 µM / fold induction at 1 µM / fold induction at 5 µM / fold induction at 10 µM / fold induction at 20 µM / fold induction at 40 µM: Mus musculus, Myotube, read-out: Burkin Assay in Myotubes, α7 integrin LacZ reporter signal relative to DMSO
[3] = system: β-galactosidase in CMV-LacZ C2C12 myotubes; assay: CMV-LacZ secondary screen in C2C12 myotubes (β-Gal stabilizing assay); details: for fold induction at 5 µM / fold induction at 10 µM / fold induction at 20 µM / fold induction at 40 µM: Mus musculus; for fold induction at 5 µM: C2C12, read-out: CMV-LACZ in Myotubes, signal relative to DMSO, 5 uM; for fold induction at 5 µM / fold induction at 10 µM / fold induction at 20 µM / fold induction at 40 µM / CMV-LACZ in Myotubes, signal relative to DMSO: C2C12 CMV-LacZ myotubes, fold relative to DMSO; for fold induction at 10 µM: C2C12, read-out: CMV-LACZ in Myotubes, signal relative to DMSO, 10 uM; for fold induction at 20 µM: C2C12, read-out: CMV-LACZ in Myotubes, signal relative to DMSO, 20 uM; for fold induction at 40 µM: C2C12, read-out: CMV-LACZ in Myotubes, signal relative to DMSO, 40 uM; for CMV-LACZ in Myotubes (β-galactosidase activity relative to DMSO): CMV-LacZ C2C12 myotubes, 96-well format
Outline: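 A secondary screen identifies compounds that stabilize β-gal independently of the native promoter, using CMV-LacZ C2C12 cells. Curves span 0.5–40 μM at six levels, in duplicate.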

## COc1cc(NC(=O)C2C3C=CC(C3)C2C(=O)O)ccc1NC(=O)c1ccccc1 (stereo not shown) [MLS001125488-01]
[1]; 0.5 uM
  fold induction at 0.5 µM: 0.933
[1]; 1 uM
  fold induction at 1 µM: 0.976
[1]; 5 uM
  fold induction at 5 µM: 0.99
[1]; 10 uM
  fold induction at 10 µM: 0.879
[1]; 20 uM
  fold induction at 20 µM: 0.907
[1]; 40 uM
  fold induction at 40 µM: 0.923
[2]; 0.5 uM
  fold induction at 0.5 µM: 1.03
[2]; 1 uM
  fold induction at 1 µM: 1.15
[2]; 5 uM
  fold induction at 5 µM: 1.12
[2]; 10 uM
  fold induction at 10 µM: 1.32
[2]; 20 uM
  fold induction at 20 µM: 1.14
[2]; 40 uM
  fold induction at 40 µM: 1.22
[3]
  fold induction at 5 µM: 0.747
  fold induction at 10 µM: 0.968
  fold induction at 20 µM: 1.18
  fold induction at 40 µM: 0.872

## COc1cc(C)c(NC(=O)COc2ccc3c(c2)OCO3)cc1C [MLS001223425-01]
[1]; 0.5 uM
  fold induction at 0.5 µM: 1.06
[1]; 1 uM
  fold induction at 1 µM: 1.08
[1]; 5 uM
  fold induction at 5 µM: 1.06
[1]; 10 uM
  fold induction at 10 µM: 1.15
[1]; 20 uM
  fold induction at 20 µM: 1.22
[1]; 40 uM
  fold induction at 40 µM: 1.13
[2]; 0.5 uM
  fold induction at 0.5 µM: 1.08
[2]; 1 uM
  fold induction at 1 µM: 1.22
[2]; 5 uM
  fold induction at 5 µM: 0.914
[2]; 10 uM
  fold induction at 10 µM: 1.38
[2]; 20 uM
  fold induction at 20 µM: 1.14
[2]; 40 uM
  fold induction at 40 µM: 1.18
[3]
  fold induction at 5 µM: 0.956
  fold induction at 10 µM: 1.04
  fold induction at 20 µM: 0.979
  fold induction at 40 µM: 1.01

## COc1ccc(N2CCN(CCC3Oc4cc([N+](=O)[O-])ccc4NC3=O)CC2)cc1 (stereo not shown) [MLS000696445-01]
[1]; 0.5 uM
  Burkin Assay in Myoblasts, signal relative to DMSO: 1.013
[1]; 1 uM
  Burkin Assay in Myoblasts, signal relative to DMSO: 0.5621
[1]; 5 uM
  Burkin Assay in Myoblasts, signal relative to DMSO: 0.867
[1]; 10 uM
  Burkin Assay in Myoblasts, signal relative to DMSO: 0.8807
[1]; 20 uM
  Burkin Assay in Myoblasts, signal relative to DMSO: 0.813
[1]; 40 uM
  Burkin Assay in Myoblasts, signal relative to DMSO: 0.807
[2]; 0.5 uM
  Burkin Assay in Myotubes, α7 integrin LacZ reporter signal relative to DMSO: 0.8602
[2]; 1 uM
  Burkin Assay in Myotubes, α7 integrin LacZ reporter signal relative to DMSO: 0.8637
[2]; 5 uM
  Burkin Assay in Myotubes, α7 integrin LacZ reporter signal relative to DMSO: 0.9714
[2]; 10 uM
  Burkin Assay in Myotubes, α7 integrin LacZ reporter signal relative to DMSO: 0.625
[2]; 20 uM
  Burkin Assay in Myotubes, α7 integrin LacZ reporter signal relative to DMSO: 0.5843
[2]; 40 uM
  Burkin Assay in Myotubes, α7 integrin LacZ reporter signal relative to DMSO: 0.8433
[3]; 5 uM
  CMV-LACZ in Myotubes, signal relative to DMSO: 1.268
[3]; 10 uM
  CMV-LACZ in Myotubes, signal relative to DMSO: 1.011
[3]; 20 uM
  CMV-LACZ in Myotubes, signal relative to DMSO: 1.122
[3]; 40 uM
  CMV-LACZ in Myotubes, signal relative to DMSO: 0.924

## CN(C)C1(CN=Cc2cc(Cl)cc([N+](=O)[O-])c2O)CCCCC1 [MLS001179695-01]
[1]; 0.5 uM
  Burkin Assay in Myoblasts, signal relative to DMSO: 1.033
[1]; 1 uM
  Burkin Assay in Myoblasts, signal relative to DMSO: 0.9441
[1]; 5 uM
  Burkin Assay in Myoblasts, signal relative to DMSO: 0.8752
[1]; 10 uM
  Burkin Assay in Myoblasts, signal relative to DMSO: 0.9871
[1]; 20 uM
  Burkin Assay in Myoblasts, signal relative to DMSO: 0.8923
[1]; 40 uM
  Burkin Assay in Myoblasts, signal relative to DMSO: 0.8068
[2]; 0.5 uM
  Burkin Assay in Myotubes, α7 integrin LacZ reporter signal relative to DMSO: 1.053
[2]; 1 uM
  Burkin Assay in Myotubes, α7 integrin LacZ reporter signal relative to DMSO: 0.949
[2]; 5 uM
  Burkin Assay in Myotubes, α7 integrin LacZ reporter signal relative to DMSO: 1.199
[2]; 10 uM
  Burkin Assay in Myotubes, α7 integrin LacZ reporter signal relative to DMSO: 0.9922
[2]; 20 uM
  Burkin Assay in Myotubes, α7 integrin LacZ reporter signal relative to DMSO: 0.9298
[2]; 40 uM
  Burkin Assay in Myotubes, α7 integrin LacZ reporter signal relative to DMSO: 0.8546
[3]; 5 uM
  CMV-LACZ in Myotubes, signal relative to DMSO: 1.183
[3]; 10 uM
  CMV-LACZ in Myotubes, signal relative to DMSO: 1.095
[3]; 20 uM
  CMV-LACZ in Myotubes, signal relative to DMSO: 1.175
[3]; 40 uM
  CMV-LACZ in Myotubes, signal relative to DMSO: 1.047

## COC(=O)Cc1c(O)ccn(Cc2ccc3c(c2)OCO3)c1=O [MLS000721525-01]
[1]; 0.5 uM
  Burkin Assay in Myoblasts, value relative to DMSO: 1.086
[1]; 1 uM
  Burkin Assay in Myoblasts, value relative to DMSO: 1.086
[1]; 5 uM
  Burkin Assay in Myoblasts, value relative to DMSO: 0.9834
[1]; 10 uM
  Burkin Assay in Myoblasts, value relative to DMSO: 1.01
[1]; 20 uM
  Burkin Assay in Myoblasts, value relative to DMSO: 0.9936
[1]; 40 uM
  Burkin Assay in Myoblasts, value relative to DMSO: 0.985
[2]; 0.5 uM
  Burkin Assay in Myotubes (signal relative to DMSO): 0.6646
[2]; 1 uM
  Burkin Assay in Myotubes (signal relative to DMSO): 0.9136
[2]; 5 uM
  Burkin Assay in Myotubes (signal relative to DMSO): 0.6693
[2]; 10 uM
  Burkin Assay in Myotubes (signal relative to DMSO): 0.9806
[2]; 20 uM
  Burkin Assay in Myotubes (signal relative to DMSO): 0.8968
[2]; 40 uM
  Burkin Assay in Myotubes (signal relative to DMSO): 1.047
[3]; 5 uM
  CMV-LACZ in Myotubes, signal relative to DMSO: 0.866
[3]; 10 uM
  CMV-LACZ in Myotubes, signal relative to DMSO: 1.036
[3]; 20 uM
  CMV-LACZ in Myotubes, signal relative to DMSO: 0.8409
[3]; 40 uM
  CMV-LACZ in Myotubes, signal relative to DMSO: 0.9127

## Cc1ccc(S(=O)(=O)N2CN(CC3CCCO3)c3nc4ccccc4nc32)c(C)c1 (stereo not shown) [MLS001139288-01]
[1]; 0.5 uM
  Burkin Assay in Myoblasts, signal relative to DMSO: 0.9823
[1]; 1 uM
  Burkin Assay in Myoblasts, signal relative to DMSO: 0.9709
[1]; 5 uM
  Burkin Assay in Myoblasts, signal relative to DMSO: 0.8634
[1]; 10 uM
  Burkin Assay in Myoblasts, signal relative to DMSO: 0.9225
[1]; 20 uM
  Burkin Assay in Myoblasts, signal relative to DMSO: 1.085
[1]; 40 uM
  Burkin Assay in Myoblasts, signal relative to DMSO: 0.9336
[2]; 0.5 uM
  Burkin Assay in Myotubes, α7 integrin LacZ reporter signal relative to DMSO: 0.9234
[2]; 1 uM
  Burkin Assay in Myotubes, α7 integrin LacZ reporter signal relative to DMSO: 0.8525
[2]; 5 uM
  Burkin Assay in Myotubes, α7 integrin LacZ reporter signal relative to DMSO: 0.9829
[2]; 10 uM
  Burkin Assay in Myotubes, α7 integrin LacZ reporter signal relative to DMSO: 0.9777
[2]; 20 uM
  Burkin Assay in Myotubes, α7 integrin LacZ reporter signal relative to DMSO: 1.313
[2]; 40 uM
  Burkin Assay in Myotubes, α7 integrin LacZ reporter signal relative to DMSO: 0.7808
[3]; 5 uM
  CMV-LACZ in Myotubes, signal relative to DMSO: 1.247
[3]; 10 uM
  CMV-LACZ in Myotubes, signal relative to DMSO: 1.047
[3]; 20 uM
  CMV-LACZ in Myotubes, signal relative to DMSO: 1.096
[3]; 40 uM
  CMV-LACZ in Myotubes, signal relative to DMSO: 1.0825

## O=C(/C(=C(/[O-])c1ccccc1)[n+]1ccccc1)c1ccc([N+](=O)[O-])cc1 [MLS000705922-01]
[1]; 0.5 uM
  Burkin Assay in Myoblasts, value relative to DMSO: 0.9627
[1]; 1 uM
  Burkin Assay in Myoblasts, value relative to DMSO: 1.02
[1]; 5 uM
  Burkin Assay in Myoblasts, value relative to DMSO: 0.7282
[1]; 10 uM
  Burkin Assay in Myoblasts, value relative to DMSO: 0.7283
[1]; 20 uM
  Burkin Assay in Myoblasts, value relative to DMSO: 0.8892
[1]; 40 uM
  Burkin Assay in Myoblasts, value relative to DMSO: 0.8783
[2]; 0.5 uM
  Burkin Assay in Myotubes (signal relative to DMSO): 0.8984
[2]; 1 uM
  Burkin Assay in Myotubes (signal relative to DMSO): 1.137
[2]; 5 uM
  Burkin Assay in Myotubes (signal relative to DMSO): 0.8511
[2]; 10 uM
  Burkin Assay in Myotubes (signal relative to DMSO): 0.9544
[2]; 20 uM
  Burkin Assay in Myotubes (signal relative to DMSO): 0.9072
[2]; 40 uM
  Burkin Assay in Myotubes (signal relative to DMSO): 1.039
[3]; 5 uM
  CMV-LACZ in Myotubes (β-galactosidase activity relative to DMSO): 0.8776
[3]; 10 uM
  CMV-LACZ in Myotubes (β-galactosidase activity relative to DMSO): 0.9306
[3]; 20 uM
  CMV-LACZ in Myotubes (β-galactosidase activity relative to DMSO): 0.9302
[3]; 40 uM
  CMV-LACZ in Myotubes (β-galactosidase activity relative to DMSO): 0.9947
